Assay results published in the NIST ThermoML archive (doi:10.1021/acs.jced.6b00273).

Assay: mn = molality of the nth substance listed, in mol/kg
Conditions: 101.33 kPa, Liquid; for viscosity: Capillary tube (Ostwald / Ubbelohde) method; for mass density: Vibrating tube method

Cn1cnc2c1c(=O)[nH]c(=O)n2C [1H-purine-2,6-dione, 3,7-dihydro-3,7-dimethyl-] + O
Conditions | mass density, 288.15 K [kg/m3] | mass density, 298.15 K [kg/m3] | mass density, 308.15 K [kg/m3] | mass density, 318.15 K [kg/m3] | viscosity, 288.15 K [mPa·s] | viscosity, 298.15 K [mPa·s] | viscosity, 308.15 K [mPa·s] | viscosity, 318.15 K [mPa·s]
m1 = 0.00051 | 999.157 | 997.073 | 994.088 | 990.268 | 1.138 | 0.891 | 0.72 | 0.597
m1 = 0.0007 | 999.167 | 997.083 | 994.097 | 990.277 | 1.139 | 0.891 | 0.72 | 0.597
m1 = 0.0009 | 999.177 | 997.093 | 994.107 | 990.287 | 1.139 | 0.891 | 0.72 | 0.597
m1 = 0.00098 | 999.182 | 997.097 | 994.111 | 990.291 | 1.139 | 0.891 | 0.72 | 0.597
m1 = 0.00123 | 999.195 | 997.11 | 994.123 | 990.303 | 1.139 | 0.891 | 0.72 | 0.597
m1 = 0.00147 | – | – | – | – | 1.139 | 0.891 | 0.72 | 0.597
m1 = 0.00148 | 999.209 | 997.123 | 994.135 | 990.314 | – | – | – | –
m1 = 0.00182 | – | – | – | – | 1.139 | 0.891 | 0.72 | 0.597
m1 = 0.00183 | 999.228 | 997.141 | 994.152 | 990.331 | – | – | – | –
m1 = 0.00212 | – | – | – | – | 1.139 | 0.891 | 0.72 | 0.597
m1 = 0.00213 | 999.244 | 997.156 | 994.167 | 990.346 | – | – | – | –

Cn1c(=O)c2[nH]cnc2n(C)c1=O [3,7-dihydro-1,3-dimethyl-1H-purine-2,6-dione] + O
Conditions | mass density, 288.15 K [kg/m3] | mass density, 298.15 K [kg/m3] | mass density, 308.15 K [kg/m3] | mass density, 318.15 K [kg/m3] | viscosity, 288.15 K [mPa·s] | viscosity, 298.15 K [mPa·s] | viscosity, 308.15 K [mPa·s] | viscosity, 318.15 K [mPa·s]
m1 = 0.00208 | 999.241 | 997.153 | 994.165 | 990.343 | – | – | – | –
m1 = 0.00213 | – | – | – | – | 1.139 | 0.891 | 0.719 | 0.597
m1 = 0.00284 | – | – | – | – | 1.139 | 0.892 | 0.72 | 0.597
m1 = 0.00285 | 999.283 | 997.192 | 994.204 | 990.379 | – | – | – | –
m1 = 0.00378 | 999.333 | 997.239 | 994.25 | 990.423 | – | – | – | –
m1 = 0.00394 | – | – | – | – | 1.14 | 0.892 | 0.72 | 0.598
m1 = 0.00479 | 999.388 | 997.291 | 994.3 | 990.472 | – | – | – | –
m1 = 0.00519 | – | – | – | – | 1.14 | 0.892 | 0.721 | 0.598
m1 = 0.00578 | 999.443 | 997.341 | 994.35 | 990.519 | – | – | – | –
m1 = 0.00617 | – | – | – | – | 1.141 | 0.893 | 0.722 | 0.599
m1 = 0.00689 | – | – | – | – | 1.141 | 0.893 | 0.722 | 0.599
m1 = 0.00699 | 999.509 | 997.404 | 994.41 | 990.578 | – | – | – | –
m1 = 0.00776 | 999.551 | 997.443 | 994.448 | 990.614 | – | – | – | –
m1 = 0.00819 | – | – | – | – | 1.142 | 0.894 | 0.723 | 0.599
m1 = 0.00921 | – | – | – | – | 1.142 | 0.895 | 0.723 | 0.6
m1 = 0.00934 | 999.638 | 997.526 | 994.528 | 990.691 | – | – | – | –
m1 = 0.00986 | 999.667 | 997.554 | 994.554 | 990.716 | – | – | – | –

Cn1c(=O)c2c(ncn2C)n(C)c1=O [caffeine] + O
Conditions | mass density, 288.15 K [kg/m3] | mass density, 298.15 K [kg/m3] | mass density, 308.15 K [kg/m3] | mass density, 318.15 K [kg/m3] | viscosity, 288.15 K [mPa·s] | viscosity, 298.15 K [mPa·s] | viscosity, 308.15 K [mPa·s] | viscosity, 318.15 K [mPa·s]
m1 = 0.00508 | – | – | – | – | 1.14 | 0.895 | 0.723 | 0.599
m1 = 0.0051 | 999.404 | 997.304 | 994.303 | 990.464 | – | – | – | –
m1 = 0.00693 | – | – | – | – | 1.142 | 0.896 | 0.724 | 0.6
m1 = 0.00695 | 999.505 | 997.399 | 994.39 | 990.545 | – | – | – | –
m1 = 0.009 | – | – | – | – | 1.144 | 0.896 | 0.724 | 0.601
m1 = 0.00902 | 999.619 | 997.504 | 994.488 | 990.637 | – | – | – | –
m1 = 0.01986 | – | – | – | – | 1.147 | 0.9 | 0.728 | 0.606
m1 = 0.01993 | 1000.22 | 998.06 | 995.013 | 991.121 | – | – | – | –
m1 = 0.02978 | – | – | – | – | 1.152 | 0.905 | 0.732 | 0.609
m1 = 0.02992 | 1000.77 | 998.576 | 995.497 | 991.571 | – | – | – | –
m1 = 0.03531 | 1001.07 | 998.853 | 995.759 | 991.812 | – | – | – | –
m1 = 0.03533 | – | – | – | – | 1.154 | 0.907 | 0.735 | 0.611
m1 = 0.03983 | – | – | – | – | 1.156 | 0.91 | 0.737 | 0.613
m1 = 0.04008 | 1001.34 | 999.101 | 996.001 | 992.025 | – | – | – | –
m1 = 0.04953 | – | – | – | – | 1.162 | 0.914 | 0.741 | 0.617
m1 = 0.04992 | 1001.89 | 999.619 | 996.484 | 992.483 | – | – | – | –

[Cl-].[Na+] [sodium chloride] + O
Conditions | mass density, m1 = 0.1 [kg/m3] | mass density, m1 = 0.25 [kg/m3] | mass density, m1 = 0.5 [kg/m3] | mass density, m1 = 0.75 [kg/m3] | mass density, m1 = 1 [kg/m3] | viscosity, m1 = 0.1 [mPa·s] | viscosity, m1 = 0.25 [mPa·s] | viscosity, m1 = 0.5 [mPa·s] | viscosity, m1 = 0.75 [mPa·s] | viscosity, m1 = 1 [mPa·s]
288.15 K | 1003.33 | 1009.78 | – | 1029.45 | 1039.16 | 1.15 | 1.16 | 1.178 | 1.214 | 1.254
298.15 K | 1001.12 | 1007.29 | – | 1026.12 | 1036.18 | 0.901 | 0.91 | 0.932 | 0.959 | 0.991
308.15 K | 998.046 | 1003.48 | – | 1023.12 | 1032.47 | 0.728 | 0.74 | 0.756 | 0.78 | 0.812
318.15 K | 994.175 | 999.875 | 1009.78 | 1018.94 | 1028.31 | 0.605 | 0.61 | 0.63 | 0.65 | 0.676
